Assay results reported in patent publication US7709495B2, “Methods and reagents for the treatment of inflammatory disorders” (CombinatoRx, Incorporated, priority 2003, dated 2010).
Where two headings read alike, the source gives them in different places.

Experiments:
Format in all cases: cell-based
TNFα secretion = TNFα secretion assay (ELISA), phorbol 12-myristate 13-acetate/ionomycin stimulated white blood cells; conditions: Homo sapiens, PBMC, read-out: % Inhibition TNFα PBMC PI
Procedure: The compound dilution matrix was assayed for the suppression of phorbol 12-myristate 13 acetate/ionomycin stimulated IL-1 and TNFα secretion as well as the suppression of lipopolysaccharide-stimulated TNFα secretion from human white blood cells using the ELISA method, as described below.
(§1) A stock solution containing prednisolone (0.36 mg/ml) was prepared in DMSO. A stock solution containing ibudilast (1.84 mg/ml) was prepared in DMSO. Master plates were prepared for dilutions of the stock solutions above.
(§2) The final single agent plates were generated by transferring 1 μL of stock solution from the specific master plate to separate dilution plates containing 99 μL of media (RPMI; Gibco BRL, #11875-085), 10% fetal bovine serum (Gibco BRL, #25140-097), 2% penicillin/streptomycin (Gibco BRL, #15140-122)) using the Packard Mini-Trak liquid handler. The dilution plates were then mixed and a 10 μL aliquot transferred from each dilution plate to the final assay plate (polystyrene 384-well plate (NalgeNunc)), which had been pre-filled with 30 μL/well RPMI media containing 33 ng/mL phorbol 12-myristate 13-acetate (Sigma, P-1585) and 2.475 ng/mL ionomycin (Sigma, I-0634) or alternatively for the LPS stimulated assay RPMI media containing 2 μg/ml lipopolysaccharide (Sigma, L-4130).
The effects of test compound combinations on TNFα secretion were assayed in white blood cells from human buffy coat stimulated with phorbol 12-myistate 13-acetate, or lipopolysaccharide as follows. Human white blood cells from buffy coat were diluted 1:50 in media (RPMI; Gibco BRL, #11875-085), 10% fetal bovine serum (Gibco BRL, #25140-097), 2% penicillin/streptomycin (Gibco BRL, #15140-122)) and 50 μL of the diluted white blood cells were placed in each well of the final assay plate created in the above section. After 16-18 hours of incubation at 37° C. with 5% CO2 in a humidified incubator, the plate was centrifuged and the supernatant transferred to a white opaque polystyrene 384 well plate (NalgeNunc, Maxisorb) coated with an anti-TNFα antibody (PharMingen, #551220). After a two-hour incubation, the plate was washed (Tecan Powerwasher 384) with PBS containing 0.1% Tween 20 and incubated for one additional hour with biotin labeled anti-TNFα antibody (PharMingen, #554511) and HRP coupled to streptavidin (PharMingen, #13047E). The plate was then washed again with 0.1% Tween 20/PBS. An HRP-luminescent substrate was added to each well, and the light intensity of each well was measured using a plate luminometer.
(§3) The percent inhibition (% I) for each well was calculated using the following formula: % I=[(avg. untreated wells−treated well)/(avg. untreated wells)]×100
(§4) The average untreated well value (avg. untreated wells) is the arithmetic mean of 30 wells from the same assay plate treated with vehicle alone.
TNFα secretion was measured by ELISA as described above after stimulation with phorbol 12-myristate 13-acetate and ionomycin. The effects of varying concentrations of ibudilast, prednisolone and a combination of ibudilast and prednisolone were compared to control wells.

[1] = test system: white blood cells from human buffy coat; assay: alamarBlue assay (toxicity/cell viability), lipopolysaccharide stimulated; conditions: PBMC, read-out: % Inhibition of Proliferation of PBMC LPS
Procedure: as §1, §2, §3, §4
(§5) The toxicity of the test combination were assessed using alamarBlue® assayed in white blood cells from human buffy coat stimulated with LPS or phorbol 12-myistate 13-acetate and Ionomycin, as follows. Human white blood cells from buffy coat were diluted 1:50 in media (RPMI; Gibco BRL, #11875-085), 10% fetal bovine serum (Gibco BRL, #25140-097), 2% penicillin/streptomycin (Gibco BRL, #15140-122)) and 50 μL of the diluted white blood cells was placed in each well of the final assay plate created in the above section. After 16-18 hours of incubation at 37° C. with 5% CO2 in a humidified incubator, 5 μl of alamarBlue® (BioSource Intl. Inc., DAL 1100) was added to all of the wells. After 20-24 hours of incubation in 37° C. in a humidified incubator, fluorescence was then measured using a plate fluorometer.
Cell viability was measured the alamarBlue® asay described above after stimulation with lipopolysaccharide. The effects of varying concentrations of ibudilast, prednisolone and a combination of ibudilast and prednisolone were compared to control wells. These wells were stimulated with lipopolysaccharide, but not receive ibudilast or prednisolone.

[2] = test system: white blood cells from human buffy coat; assay: alamarBlue assay (toxicity/cell viability), PMA/ionomycin stimulated; conditions: PBMC, read-out: % Inhibition of Proliferation of PBMC PI
Procedure: as §1, §2, §3, §4, §5
Cell viability was measured using the alamarBlue® assay described above after stimulation with phorbol 12-myristate 13-acetate and ionomycin. The effects of varying concentrations of ibudilast, prednisolone and a combination of ibudilast and prednisolone were compared to control wells.

`C[C@]12C=CC(=O)C=C1CC[C@@H]1[C@@H]2[C@@H](O)C[C@@]2(C)[C@H]1CC[C@]2(O)C(=O)CO` [Prednisolone, prednisolone] gave an inhibition at 0.0078 µM (TNFα secretion; prednisolone 0.0078 μM alone) of 12%, an inhibition at 0.016 µM (TNFα secretion; prednisolone 0.016 μM alone) of 17% and an inhibition at 0.031 µM (TNFα secretion; prednisolone 0.031 μM alone) of 22%. It also gave an inhibition at 0.062 µM (TNFα secretion; prednisolone 0.062 μM alone) of 22%, an inhibition at 0.12 µM (TNFα secretion; prednisolone 0.12 μM alone) of 29% and an inhibition at 0.25 µM (TNFα secretion; prednisolone 0.25 μM alone) of 32%. The inhibition at 0.5 µM (TNFα secretion; prednisolone 0.5 μM alone) was 33%, the inhibition at 1 µM (TNFα secretion; prednisolone 1 μM alone) was 36% and the inhibition at 0.0078 µM ([1]; prednisolone 0.0078 μM alone) was -1.7%. It also gave an inhibition at 0.016 µM ([1]; prednisolone 0.016 μM alone) of -1.5%, an inhibition at 0.031 µM ([1]; prednisolone 0.031 μM alone) of 0.64% and an inhibition at 0.062 µM ([1]; prednisolone 0.062 μM alone) of -1.2%. For the same molecule, the inhibition at 0.12 µM ([1]; prednisolone 0.12 μM alone) was -1.8%, the inhibition at 0.25 µM ([1]; prednisolone 0.25 μM alone) was -1.3% and the inhibition at 0.5 µM ([1]; prednisolone 0.5 μM alone) was -3.3%. It also gave an inhibition at 1 µM ([1]; prednisolone 1 μM alone) of -3.8%, an inhibition at 0.0078 µM ([2]; prednisolone 0.0078 μM alone) of 4% and an inhibition at 0.016 µM ([2]; prednisolone 0.016 μM alone) of 1%. The inhibition at 0.031 µM ([2]; prednisolone 0.031 μM alone) was 1.7%, the inhibition at 0.062 µM ([2]; prednisolone 0.062 μM alone) was -1.7% and the inhibition at 0.12 µM ([2]; prednisolone 0.12 μM alone) was 3.2%. For the same molecule, the inhibition at 0.25 µM ([2]; prednisolone 0.25 μM alone) was 4.6%, the inhibition at 0.5 µM ([2]; prednisolone 0.5 μM alone) was 0.19% and the inhibition at 1 µM ([2]; prednisolone 1 μM alone) was 3.1%.

In the case of `CC(C)C(=O)c1c(C(C)C)nn2ccccc12` [Ibudilast, ibudilast], the inhibition at 0.062 µM (TNFα secretion; ibudilast 0.062 μM alone) was 2.8%, the inhibition at 0.12 µM (TNFα secretion; ibudilast 0.12 μM alone) was 2.5% and the inhibition at 0.25 µM (TNFα secretion; ibudilast 0.25 μM alone) was 6.5%. The inhibition at 0.5 µM (TNFα secretion; ibudilast 0.5 μM alone) was 18%, the inhibition at 1 µM (TNFα secretion; ibudilast 1 μM alone) was 28% and the inhibition at 2 µM (TNFα secretion; ibudilast 2 μM alone) was 31%. The inhibition at 4 µM (TNFα secretion; ibudilast 4 μM alone) was 33%, the inhibition at 8 µM (TNFα secretion; ibudilast 8 μM alone) was 40% and the inhibition at 0.062 µM ([1]; ibudilast 0.062 μM alone) was -4.6%. It also gave an inhibition at 0.12 µM ([1]; ibudilast 0.12 μM alone) of -1.5%, an inhibition at 0.25 µM ([1]; ibudilast 0.25 μM alone) of -1.8% and an inhibition at 0.5 µM ([1]; ibudilast 0.5 μM alone) of -3.8%. For the same molecule, the inhibition at 1 µM ([1]; ibudilast 1 μM alone) was -2.9%, the inhibition at 2 µM ([1]; ibudilast 2 μM alone) was 2.6% and the inhibition at 4 µM ([1]; ibudilast 4 μM alone) was -2.4%. It also gave an inhibition at 8 µM ([1]; ibudilast 8 μM alone) of 0.069%, an inhibition at 0.062 µM ([2]; ibudilast 0.062 μM alone) of -1.5% and an inhibition at 0.12 µM ([2]; ibudilast 0.12 μM alone) of -5.1%. The inhibition at 0.25 µM ([2]; ibudilast 0.25 μM alone) was 0.84%, the inhibition at 0.5 µM ([2]; ibudilast 0.5 μM alone) was -4% and the inhibition at 1 µM ([2]; ibudilast 1 μM alone) was -1.9%. The inhibition at 2 µM ([2]; ibudilast 2 μM alone) was 2.7%, the inhibition at 4 µM ([2]; ibudilast 4 μM alone) was 3.3% and the inhibition at 8 µM ([2]; ibudilast 8 μM alone) was 6.9%.
